From the supplement of paper PMC10307832

Columns and labels:
Test in all cases: relative viability (nuclei count vs DMSO), 5 days (fraction); higher = more cells survive
Adavosertib + Alpelisib = compound: C=CCn1c(=O)c2cnc(Nc3ccc(N4CCN(C)CC4)cc3)nc2n1-c1cccc(C(C)(C)O)n1 [Adavosertib] + Cc1nc(NC(=O)N2CCC[C@H]2C(N)=O)sc1-c1ccnc(C(C)(C)C(F)(F)F)c1 [Alpelisib] (partner 2 µM)
Outline: (§1)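 The day after seeding in 1536-well plates, lung cancer cell lines were treated by pin tool with a single drug, or with a fixed anchor-drug dose together with five library-drug doses (not always all listed) in √10 steps. After 5 days, a combined fix-and-stain solution (final 0.05% Triton X-100, 1% formaldehyde, 1 ug/ml Hoechst) was added. Nuclei counted on 4× images gave relative viability as treated counts over vehicle counts, reported as the median of duplicate plates.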

Nelarabine + Lapatinib = compound: COc1nc(N)nc2c1ncn2[C@@H]1O[C@H](CO)[C@@H](O)[C@@H]1O [Nelarabine] + CS(=O)(=O)CCNCc1ccc(-c2ccc3ncnc(Nc4ccc(OCc5cccc(F)c5)c(Cl)c4)c3c2)o1 [Lapatinib] (partner 2 µM)
Outline: as §1

Adavosertib + Decitabine = compound: C=CCn1c(=O)c2cnc(Nc3ccc(N4CCN(C)CC4)cc3)nc2n1-c1cccc(C(C)(C)O)n1 [Adavosertib] + Nc1ncn([C@H]2C[C@H](O)[C@@H](CO)O2)c(=O)n1 [Decitabine] (partner 2 µM)
Outline: as §1

Nelarabine + Alpelisib = compound: COc1nc(N)nc2c1ncn2[C@@H]1O[C@H](CO)[C@@H](O)[C@@H]1O [Nelarabine] + Cc1nc(NC(=O)N2CCC[C@H]2C(N)=O)sc1-c1ccnc(C(C)(C)C(F)(F)F)c1 [Alpelisib] (partner 2 µM)
Outline: as §1

| Cell Line | relative viability (Adavosertib + Alpelisib; first compound 0.01 µM) | relative viability (Adavosertib + Alpelisib; first compound 0.03162 µM) | relative viability (Adavosertib + Alpelisib; first compound 0.1 µM) | relative viability (Adavosertib + Alpelisib; first compound 0.3162 µM) | relative viability (Nelarabine + Lapatinib; first compound 0.01 µM) | relative viability (Nelarabine + Lapatinib; first compound 0.03162 µM) | relative viability (Nelarabine + Lapatinib; first compound 0.1 µM) | relative viability (Nelarabine + Lapatinib; first compound 0.3162 µM) | relative viability (Nelarabine + Lapatinib; first compound 1 µM) | relative viability (Adavosertib + Decitabine; first compound 0.01 µM) | relative viability (Adavosertib + Decitabine; first compound 0.03162 µM) | relative viability (Adavosertib + Decitabine; first compound 0.1 µM) | relative viability (Adavosertib + Decitabine; first compound 0.3162 µM) | relative viability (Nelarabine + Alpelisib; first compound 0.01 µM) | relative viability (Nelarabine + Alpelisib; first compound 0.03162 µM) | relative viability (Nelarabine + Alpelisib; first compound 0.1 µM) | relative viability (Nelarabine + Alpelisib; first compound 0.3162 µM) | relative viability (Nelarabine + Alpelisib; first compound 1 µM) |
| --- | --- | --- | --- | --- | --- | --- | --- | --- | --- | --- | --- | --- | --- | --- | --- | --- | --- | --- |
| NCI-H2347 | 1.06 | 1.02 | 1.04 | 0.975 | 0.977 | 0.904 | 0.94 | 0.954 | 0.992 | 0.637 | 0.595 | 0.65 | 0.621 | 1.01 | 1.13 | 1.14 | 1.04 | 1.14 |
| NCI-H3122 | 0.763 | 0.656 | 0.83 | 0.84 | 1.08 | 0.891 |  | 1.08 | 1.01 | 0.41 | 0.49 | 0.484 | 0.494 | 0.898 | 0.569 |  | 0.881 | 0.761 |
| HCC-15 | 0.904 | 0.916 | 0.987 | 1.04 | 0.987 | 0.798 | 0.928 | 0.883 | 0.9 | 0.714 | 0.719 | 0.667 | 0.858 | 1.09 | 0.822 | 0.847 | 0.983 | 0.934 |
| HCC-78 | 0.347 | 0.305 | 0.443 | 0.278 | 0.731 | 0.779 |  | 0.902 | 0.631 | 0.661 | 0.679 | 0.731 | 0.618 | 0.349 | 0.336 |  | 0.349 | 0.4 |
| A549 | 0.813 | 0.896 | 0.957 | 0.804 | 1.13 | 1.09 | 0.926 | 0.896 | 0.921 | 0.28 | 0.257 | 0.298 | 0.291 | 0.885 | 0.879 | 0.783 | 0.818 | 0.858 |
| PC-3 [JPC-3] | 0.99 | 1.03 | 1.08 | 1.07 | 0.508 | 0.373 | 0.439 | 0.451 | 0.436 |  | 0.906 | 0.926 | 0.78 | 1.14 | 0.993 | 1.06 | 1.05 | 0.986 |
| NCI-H1395 | 0.975 | 1.1 | 1.03 | 0.732 | 0.959 | 1.1 | 1.23 | 0.971 | 1.5 | 0.702 | 0.754 | 0.781 | 0.62 | 1.15 | 0.987 | 1 | 1.34 | 0.99 |
| SK-MES-1 | 0.956 | 0.844 | 0.924 | 0.618 | 0.432 | 0.544 | 0.456 | 0.563 | 0.555 | 0.368 | 0.385 | 0.364 | 0.227 | 1.01 | 1 | 0.937 | 0.964 | 0.948 |
| CAL-12T | 1.09 | 1.27 | 1.2 | 0.929 | 0.699 | 0.743 | 0.611 | 0.685 | 0.688 |  |  |  |  | 1.86 | 1.48 | 1.16 | 1.4 | 1.37 |
| LCLC-97TM1 |  | 0.219 | 0.23 | 0.122 | 0.854 | 0.778 | 0.667 | 0.818 | 1.14 | 0.262 | 0.264 | 0.246 | 0.221 | 0.277 | 0.211 | 0.216 | 0.212 | 0.26 |
| HOP-62 | 0.924 | 1.02 | 1.14 | 0.955 | 1.35 | 1.08 | 1.18 | 1.11 | 1 | 0.27 | 0.239 | 0.229 | 0.223 | 1.12 | 1.03 | 0.942 | 0.926 | 1.07 |
| NCI-H1703 | 0.367 | 0.361 | 0.304 | 0.147 | 1.65 | 1.33 | 1.42 | 1.05 | 1.11 |  |  |  |  | 0.395 | 0.278 | 0.385 | 0.366 | 0.409 |
| NCI-H596 | 0.51 | 0.464 | 0.457 | 0.422 | 1.15 | 1.13 | 1.27 | 0.892 | 1.07 | 1.1 | 1.02 | 1.02 | 0.866 | 0.532 | 0.504 | 0.525 | 0.577 | 0.504 |
| NCI-H2126 | 0.75 | 0.767 | 0.675 | 0.752 | 0.91 | 0.763 | 0.72 | 0.754 | 0.797 | 0.518 | 0.596 | 0.512 | 0.568 | 0.875 | 0.81 | 0.779 | 0.744 | 0.774 |
| NCI-H2087 | 1.11 | 1.07 | 1.2 | 0.944 | 1 | 1.02 | 1.09 | 1.07 | 1.32 | 0.24 | 0.347 | 0.276 | 0.277 | 1.19 | 1.13 | 0.986 | 0.969 | 1.07 |
| NCI-H1355 | 0.878 | 0.84 | 0.777 | 0.751 | 1.14 | 0.7 | 0.929 | 0.993 | 1.07 | 0.347 | 0.351 | 0.396 | 0.368 | 1.09 | 0.615 | 0.813 | 0.894 | 0.801 |
| EBC-1 | 0.98 | 0.843 | 0.921 | 0.81 | 0.177 | 0.205 | 0.188 | 0.215 | 0.197 |  |  |  |  | 0.86 | 0.829 | 0.941 | 0.87 | 0.951 |
| ABC-1 | 0.993 | 1.04 | 1.28 | 1.08 | 1.44 | 0.952 | 1.23 | 1.1 | 1.37 | 1.28 | 1.04 | 1.17 | 0.959 | 1.06 | 1.3 | 1.24 | 0.937 | 1.08 |
